# Results reported in US8188149B2, “Use of R(+)-N-propargy1-1-aminoindan to treat or prevent hearing loss” (Teva Pharmaceutical Industries, Ltd., priority 2007, dated 2012).
# Like-named read-outs stand apart in the source and are kept apart here.
# How the values were obtained:
# [1] = system: dopamine release from the guinea pig cochlea preparation
# Method: The bulla tympani of a male guinea pig (weighing 150-350 g) was opened. The bony capsule of the cochlea was removed under stereomicroscopic guidance and the stria vascularis was stripped and the cochlea was fractured at the basis of the modiolus. The preparation contained the ganglion spirale, the afferent auditory fibers, the axons and axon terminals of the efferent bundles and both the inner and outer hair cells. All experiments were carried out in a perilimph-like solution, which contained […], 3.5 mM KCl, 1 mM CaCl2, 1 mM MgCl2, 2.75 mM HEPES and 2.25 mM Tris-OH at the temperature of 37° C. and pH 7.4. The osmolality was set by D-glucose and continuously saturated by 100% O2.
# The cochleae were incubated with 0.2 μM [3H]dopamine (Amersham, UK, spec. act.: 31.0 Ci/mmol, 6 μCi in 1 ml) for 35 min. Each cochlea was then placed in a microvolume plexi chamber and superfused at 3 ml/min with perilymph-like solution. After 1 hour pre-perfusion the outflow was collected into 3 min-fractions. The released activity was determined by assaying […] of each sample with liquid scintillation spectrometry (Packard Tri-Carb 1900TR). After collecting samples for 57 minutes (19 fractions) each cochlea was transferred from the microchambers to 500 μl of 10% trichloroacetic acid for one day and 100 μl was assayed for tissue radioactivity. […] Electrical field stimulation was applied for one fraction period (3 min, 360 pulses) at 60 V, 2 Hz and 0.5 ms duration at the 3rd and 13th fractions. The pulses were delivered by a Grass S88 stimulator (West Warwick, USA) through platinum electrodes at the top and bottom of the tissue chamber.
# To best describe the release of dopamine during one collecting period, the fractional release (FR) of the tritium-outflow was determined as the percentage of total radioactivity present in the tissue at the time of sample collection. The fractional release evoked by field stimulations (S1 and S2) was calculated by the area-under-the-curve, i.e., by subtracting the mean of the basal release from the total fractional release during the electrical stimulation (Halmos G, Gáborján A, Lendvai B, Répássy G, Z Szabó L, Vizi E S, (2000) Veratridine-evoked release of dopamine from guinea pig isolated cochlea. Hear Res 144: 89-96, Halmos G, Lendvai B, Gáborján A, Baranyi M, Z Szabó L, Csokonai Vitéz L, (2002) Simultaneous measurement of glutamate and dopamine release from isolated guinea pig cochlea. Neurochem Int 40: 243-248). The effects of drugs on the field stimulation-evoked [^3H]dopamine release were expressed by the calculated ratio of FRS2 over FRS1, in the presence and in the absence of the drug, respectively. The effect of drugs on the resting outflow of tritium was determined as the ratio of the sum of the two highest consecutive resting FR values in the presence of the drug and before the drug reached the cochleae (FRR2/FRR1). Data are expressed as the means±S.E.M. ANOVA was used for statistical analysis. Tukey post-hoc test was applied to determine the significance of pair wise comparisons.
# [2] = system: neomycin-induced hearing loss; settings: mice
# Method: Left ears were left for vehicle control (NaCl injection). […] Click stimulations to the ear including various frequencies were used to evoke the auditory response in the brainstem that was measured by multiple electrodes placed on the head of the animal.
# [3] = system: neomycin-induced hearing loss; settings: guinea pigs
# Method: Guinea pigs weighing 250-300 g were used in all experiments. All interventions (including ABR measurements and intratympanic treatments) are performed under general anesthesia using i.p. injection of a cocktail of Ketamine and Xylazine.
# A loudspeaker is placed in each ear and the ABR responses were detected by four surface electrodes. These electrodes are placed two in the mastoid region and one in vertex as positive and fourth electrode was placed on forehead as the ground electrode. Calibrated acoustic signals are obtained to evoke brainstem response. The visual detection threshold is determined by decrement sound pressure in 5 dB steps. The evoked responses are then filtered and averaged with 500 sweeps using a signal processor. All ABR tests are performed bilaterally and baseline Peak Equivalent Sound Pressure Levels (PESPLs) are obtained in terms of decibel (dB). All animals undergo baseline hearing test (ABR) before any kind of treatment in order to rule out previous hearing loss. Control ABR threshold measurements are compared to pretreatment values. Auditory threshold shift is subjected to statistical analysis, statistical significance is determined.
# A fine needle is used for myringotomy and drugs are delivered through the same needle. The whole middle ear is filled until the fluid can be seen in the external auditory canal. […] Concentration is calculated using this volume. […]
structure (smiles),measurement,setting,value
"C#CCN[C@@H]1CCc2ccccc21 [Rasagiline, R(+)-N-propargyl-1-aminoindan]",field stimulation-evoked dopamine release (FRS2/FRS1),[1]; 100 μM Rasagiline,increase was significant
same,"evoked dopamine release, all timing groups vs control","[1]; 100 μM, 3-21 min perfusion",significant enhancement
same,resting release of dopamine (FRR2/FRR1),"[1]; 100 μM, longest duration, 21 minutes prior to stimulation",failed to induce significant differences
same,field stimulation-evoked dopamine release (FRS2/FRS1),[1]; 300 μM Rasagiline,increase was significant
same,"effect on dopamine release, concentration dependence","[1]; 1-300 μM, FIG. 2",concentration dependent
same,cochlear DA release,"[1]; higher doses (of 1, 10, 100, 300 μM), added 15 min prior to second field stimulation",elevate
same,cochlear dopamine release,"[1]; low concentration (of 1, 10, 100, 300 μM), added 15 min prior to second field stimulation",did not change
same,hearing threshold compared to threshold prior to neomycine treatment,[2]; 0.5 mg Rasagiline intratympanically together with neomycine,remained unchanged
same,protection against ototoxic effect of neomycine,"[2]; intraperitoneally 50 mg/kg daily, day of neomycine treatment and next three days",could not prevent
same,hearing threshold compared to threshold prior to neomycine treatment,[3]; Rasagiline intratympanically together with neomycine,remains unchanged
same,protection against ototoxic effect of neomycine,[3]; intraperitoneally on day of neomycine treatment and next three days,can not prevent
